Measured values published in patent US7238694B2, “Rifamycin imino derivatives effective against drug-resistant microbes” (Cumbre Pharmaceuticals, Inc., priority 2004, dated 2007).
Values after ≈ are worked out from the molar mass of the structure shown.

Key:
Type in all cases: cell-based
[1] = tested on: Staphylococcus aureus ATCC29213; assay: MIC, microbroth dilution (NCCLS); conditions: rifS strain, Cation-Adjusted Mueller-Hinton Broth, 37° C., read-out: MIC
[2] = tested on: Staphylococcus aureus ATCC29213 rpoB^H418Y; assay: microbe, parasite or virus in culture; conditions: Staphylococcus aureus, ATCC29213; rifR strain; Cation-Adjusted Mueller-Hinton Broth, 37° C.; read-out: MIC
[3] = tested on: Staphylococcus aureus MT1222 gyrA^A116E grlB^S80F; assay: microbe, parasite or virus in culture; conditions: cipR strain, Cation-Adjusted Mueller-Hinton Broth, 37° C., read-out: MIC
[4] = tested on: Staphylococcus epidermidis ATCC12228; assay: MIC, microbroth dilution (NCCLS); conditions: rifS strain, Cation-Adjusted Mueller-Hinton Broth, 37° C., read-out: MIC
[5] = tested on: Streptococcus pneumoniae ATCC6303; assay: MIC, microbroth dilution (NCCLS); conditions: rifS strain, THY Broth with 1 mg/mL catalase, 5% CO2, 37° C., read-out: MIC
[6] = tested on: Streptococcus pyogenes ATCC19615; assay: MIC, microbroth dilution (NCCLS); conditions: rifS strain, THY Broth, 37° C., read-out: MIC
[7] = tested on: Haemophilus influenzae ATCC10211; assay: MIC, microbroth dilution (NCCLS); conditions: rifS strain, BHI Broth with NAD and hematin, 37° C., read-out: MIC

Row | SMILES | MIC [1] [µg/mL] | MIC [2] [µg/mL] | MIC [3] [µg/mL] | MIC [4] [µg/mL] | MIC [5] [µg/mL] | MIC [6] [µg/mL] | MIC [7] [µg/mL]
1 | COc1c(N2CCN(C3CCN(/N=C/c4c5c(O)c6c(O)c(C)c7c(c6c4O)C(=O)[C@@](C)(O/C=C/[C@H](OC)[C@@H](C)[C@@H](OC(C)=O)[C@H](C)[C@H](O)[C@H](C)[C@@H](O)[C@@H](C)/C=C/C=C(/C)C(=O)N5)O7)CC3)CC2)c(F)cc2c(=O)c(C(=O)O)cn(C3CC3)c12 [Example 25, 3-{4-[1-(3-Carboxy-1-cyclopropyl-6-fluoro-8-methoxy-4-oxo-1,4-dihydroquinolin-7-yl)-piperazin-4-yl]-piperidin-1-yl-aminomethylenyl}-rifamycin SV] | 0.008 to 1 (≈ 0.00685 to 0.857 µM) | 0.06 to 16 (≈ 0.0514 to 13.7 µM) | 0.008 to 0.125 (≈ 0.00685 to 0.107 µM) | 0.008 to 0.1 (≈ 0.00685 to 0.0857 µM) | 0.008 to 0.06 (≈ 0.00685 to 0.0514 µM) | 0.008 to 0.03 (≈ 0.00685 to 0.0257 µM) | 0.125 to 4 (≈ 0.107 to 3.43 µM)
2 | COc1c(N2CCC(C3(N4CCN(/N=C/c5c6c(O)c7c(O)c(C)c8c(c7c5O)C(=O)[C@@](C)(O/C=C/[C@H](OC)[C@@H](C)[C@@H](OC(C)=O)[C@H](C)[C@H](O)[C@H](C)[C@@H](O)[C@@H](C)/C=C/C=C(/C)C(=O)N6)O8)CC4)CC3)C2)c(F)cc2c(=O)c(C(=O)O)cn(C3CC3)c12 (mixture of isomers) [Example 37, (R/S)-3-{4-[1-(3-Carboxy-1-cyclopropyl-6-fluoro-8-methoxy-4-oxo-1,4-dihydroquinoline-7-yl)-pyrrolidin-3-yl-cyclopropyl]-piperazin-1-yl-aminomethylenyl}-rifamycin SV] | 0.008 to 1 (≈ 0.0067 to 0.838 µM) | 0.06 to 16 (≈ 0.0503 to 13.4 µM) | 0.008 to 0.125 (≈ 0.0067 to 0.105 µM) | 0.008 to 0.1 (≈ 0.0067 to 0.0838 µM) | 0.008 to 0.06 (≈ 0.0067 to 0.0503 µM) | 0.008 to 0.03 (≈ 0.0067 to 0.0251 µM) | 0.125 to 4 (≈ 0.105 to 3.35 µM)
3 | CCn1cc(C(=O)O)c(=O)c2cc(F)c(N3CCN(/N=C/c4c5c(O)c6c(O)c(C)c7c(c6c4O)C(=O)[C@@](C)(O/C=C/[C@H](OC)[C@@H](C)[C@@H](OC(C)=O)[C@H](C)[C@H](O)[C@H](C)[C@@H](O)[C@@H](C)/C=C/C=C(/C)C(=O)N5)O7)CC3)cc21 [Example 18, 3-[4-(3-Carboxy-1-ethyl-6-fluoro-4-oxo-1,4-dihydroquinolin-7-yl)-piperazin-1-yl-aminomethylenyl]-rifamycin SV] | 0.008 to 1 (≈ 0.00768 to 0.96 µM) | 0.06 to 16 (≈ 0.0576 to 15.4 µM) | 0.008 to 0.125 (≈ 0.00768 to 0.12 µM) | 0.008 to 0.1 (≈ 0.00768 to 0.096 µM) | 0.008 to 0.06 (≈ 0.00768 to 0.0576 µM) | 0.008 to 0.03 (≈ 0.00768 to 0.0288 µM) | 0.125 to 4 (≈ 0.12 to 3.84 µM)
4 | CO[C@H]1/C=C/O[C@@]2(C)Oc3c(C)c(O)c4c(O)c(c(/C=N/N5CCC(NC6(C7CCN(c8c(F)cc9c(=O)c(C(=O)O)cn(C%10CC%10)c9c8Cl)C7)CC6)CC5)c(O)c4c3C2=O)NC(=O)/C(C)=C\C=C\[C@H](C)[C@H](O)[C@@H](C)[C@@H](O)[C@@H](C)[C@H](OC(C)=O)[C@@H]1C (mixture of isomers) [Example 45, (R/S)-3-[4-[1-[1-(3-Carboxy-1-cyclopropyl-7-fluoro-8-chloro-4-oxo-4H-quinolin-7-yl)pyrrolidin-3-yl]cycloprop-1-ylamino]piperidin-1-ylaminomethylenyl]rifamycin SV] | 0.008 to 1 (≈ 0.0066 to 0.825 µM) | 0.06 to 16 (≈ 0.0495 to 13.2 µM) | 0.008 to 0.125 (≈ 0.0066 to 0.103 µM) | 0.008 to 0.1 (≈ 0.0066 to 0.0825 µM) | 0.008 to 0.06 (≈ 0.0066 to 0.0495 µM) | 0.008 to 0.03 (≈ 0.0066 to 0.0248 µM) | 0.125 to 4 (≈ 0.103 to 3.3 µM)
5 | COc1c(N2CCC(N3CCN(/N=C/c4c5c(O)c6c(O)c(C)c7c(c6c4O)C(=O)[C@@](C)(O/C=C/[C@H](OC)[C@@H](C)[C@@H](OC(C)=O)[C@H](C)[C@H](O)[C@H](C)[C@@H](O)[C@@H](C)/C=C/C=C(/C)C(=O)N5)O7)CC3)C2)c(F)cc2c(=O)c(C(=O)O)cn(C3CC3)c12 (mixture of isomers) [Example 33, (R/S)-3-{4-[1-(3-Carboxy-1-cyclopropyl-6-fluoro-8-methoxyoxo-1,4-dihydroquinolin-7-yl)-pyrrolidin-3-yl]-piperazin-1-yl-aminomethylenyl}-rifamycin SV] | 0.008 to 1 (≈ 0.00694 to 0.867 µM) | 0.06 to 16 (≈ 0.052 to 13.9 µM) | 0.008 to 0.125 (≈ 0.00694 to 0.108 µM) | 0.008 to 0.1 (≈ 0.00694 to 0.0867 µM) | 0.008 to 0.06 (≈ 0.00694 to 0.052 µM) | 0.008 to 0.03 (≈ 0.00694 to 0.026 µM) | 0.125 to 4 (≈ 0.108 to 3.47 µM)
6 | CO[C@H]1/C=C/O[C@@]2(C)Oc3c(C)c(O)c4c(O)c(c(/C=N/N5CCC(N(C)C6(C7CCN(c8c(F)cc9c(=O)c(C(=O)O)cn(C%10CC%10)c9c8Cl)C7)CC6)CC5)c(O)c4c3C2=O)NC(=O)/C(C)=C\C=C\[C@H](C)[C@H](O)[C@@H](C)[C@@H](O)[C@@H](C)[C@H](OC(C)=O)[C@@H]1C (mixture of isomers) [Example 17, (R/S)-3-{[4-({1-[1-(3-Carboxy-8-chloro-1-cyclopropyl-6-fluoro-4-oxo-1,4-dihydro-quinolin-7-yl)-pyrrolidin-3-yl]-cyclopropyl}-methyl-amino)-piperidin-1-ylimino]-methyl}-rifamycin SV] | 0.008 to 1 (≈ 0.00653 to 0.816 µM) | 0.06 to 16 (≈ 0.0489 to 13.1 µM) | 0.008 to 0.125 (≈ 0.00653 to 0.102 µM) | 0.008 to 0.1 (≈ 0.00653 to 0.0816 µM) | 0.008 to 0.06 (≈ 0.00653 to 0.0489 µM) | 0.008 to 0.03 (≈ 0.00653 to 0.0245 µM) | 0.125 to 4 (≈ 0.102 to 3.26 µM)
7 | CO[C@H]1/C=C/O[C@@]2(C)Oc3c(C)c(O)c4c(c3C2=O)C(=O)C(/C=N/N2CCN(c3nc5c(cc3F)c(=O)c(C(=O)O)cn5-c3ccc(F)cc3F)CC2)=C(NC(=O)/C(C)=C\C=C\[C@H](C)[C@H](O)[C@@H](C)[C@@H](O)[C@@H](C)[C@H](OC(C)=O)[C@@H]1C)C4=O [Example 10, 3-[4-[3-Carboxy-1-(2,4-difluoro-phenyl)-6-fluoro-4-oxo-1,4-dihydro-[1,8]naphthyridine-7-yl]-piperazin-1-ylaminomethylenyl]rifamycin S] | 0.008 to 1 (≈ 0.00711 to 0.889 µM) | 0.06 to 16 (≈ 0.0533 to 14.2 µM) | 0.008 to 0.125 (≈ 0.00711 to 0.111 µM) | 0.008 to 0.1 (≈ 0.00711 to 0.0889 µM) | 0.008 to 0.06 (≈ 0.00711 to 0.0533 µM) | 0.008 to 0.03 (≈ 0.00711 to 0.0267 µM) | 0.125 to 4 (≈ 0.111 to 3.56 µM)
8 | CO[C@H]1/C=C/O[C@@]2(C)Oc3c(C)c(O)c4c(O)c(c(/C=N/N5CCN(c6c(F)cc7c(=O)c(C(=O)O)cn8c7c6OCC8C)CC5C)c(O)c4c3C2=O)NC(=O)/C(C)=C\C=C\[C@H](C)[C@H](O)[C@@H](C)[C@@H](O)[C@@H](C)[C@H](OC(C)=O)[C@@H]1C (mixture of isomers) [Example 44, (R/S)-3-[9-fluoro-3-methyl-10-(3-methyl-piperazin-1-hydrazinomethylenyl)-7-oxo-7H-pyrido[1,2,3-de]-1,4-benzoxazine-6-carboxylic acid]rifamycin SV] | 0.008 to 1 (≈ 0.00738 to 0.922 µM) | 0.06 to 16 (≈ 0.0553 to 14.8 µM) | 0.008 to 0.125 (≈ 0.00738 to 0.115 µM) | 0.008 to 0.1 (≈ 0.00738 to 0.0922 µM) | 0.008 to 0.06 (≈ 0.00738 to 0.0553 µM) | 0.008 to 0.03 (≈ 0.00738 to 0.0277 µM) | 0.125 to 4 (≈ 0.115 to 3.69 µM)
9 | COc1c(N2CCN(/N=C/c3c4c(O)c5c(O)c(C)c6c(c5c3O)C(=O)[C@@](C)(O/C=C/[C@H](OC)[C@@H](C)[C@@H](OC(C)=O)[C@H](C)[C@H](O)[C@H](C)[C@@H](O)[C@@H](C)/C=C/C=C(/C)C(=O)N4)O6)CC2)c(F)cc2c(=O)c(C(=O)O)cn(C3CC3)c12 [Example 20, 3-[4-(3-Carboxy-1-cyclopropyl-6-fluoro-8-methoxy-4-oxo-1,4-dihydroquinolin-7-yl)-piperazin-1-yl-aminomethylenyl]-rifamycin SV] | 0.008 to 1 (≈ 0.00738 to 0.922 µM) | 0.06 to 16 (≈ 0.0553 to 14.8 µM) | 0.008 to 0.125 (≈ 0.00738 to 0.115 µM) | 0.008 to 0.1 (≈ 0.00738 to 0.0922 µM) | 0.008 to 0.06 (≈ 0.00738 to 0.0553 µM) | 0.008 to 0.03 (≈ 0.00738 to 0.0277 µM) | 0.125 to 4 (≈ 0.115 to 3.69 µM)
10 | COc1c(N2CCC(C(C)N/N=C/c3c4c(O)c5c(O)c(C)c6c(c5c3O)C(=O)[C@@](C)(O/C=C/[C@H](OC)[C@@H](C)[C@@H](OC(C)=O)[C@H](C)[C@H](O)[C@H](C)[C@@H](O)[C@@H](C)/C=C/C=C(/C)C(=O)N4)O6)C2)c(F)cc2c(=O)c(C(=O)O)cn(C3CC3)c12 (stereo partly shown) [Example 42, 3-({1-[1-(3-Carboxy-1-cyclopropyl-6-fluoro-8-methoxy-4-oxo-1,4-dihydro-quinolin-7-yl)-pyrrolidin-3-yl]-ethyl}-hydrazinomethylenyl)-rifamycin SV] | 0.008 to 1 (≈ 0.00719 to 0.899 µM) | 0.06 to 16 (≈ 0.0539 to 14.4 µM) | 0.008 to 0.125 (≈ 0.00719 to 0.112 µM) | 0.008 to 0.1 (≈ 0.00719 to 0.0899 µM) | 0.008 to 0.06 (≈ 0.00719 to 0.0539 µM) | 0.008 to 0.03 (≈ 0.00719 to 0.027 µM) | 0.125 to 4 (≈ 0.112 to 3.6 µM)
